Source: article PMC8401859 (Molecules, 2021)
Read-outs that look alike come from different tables or passages of the source.

Columns and labels:
[1] = test system: CK1δ; conditions: Working Group A, ATP 10 µM; cited from earlier work
[2] = test system: CK1δ of yeast origin; conditions: Working Group B, ATP 100 µM; cited from earlier work
[3] = biological target: GST-CK1δ (Homo sapiens, UniProt P48730); test: radiometric in vitro kinase reaction, GST-CK1δ, phosphate incorporation into α-casein
Method: (§1) All in vitro kinase reactions were performed at 30 °C in a total volume of 15 µL containing 25 mM Tris-HCl (pH 7.0), 10 mM MgCl2, 100 µM EDTA and 0.4 pmol [γ-^32P]-ATP. […] GST- or 6×His-tagged CK1δ or CK1ε were used as enzymes in 7, 70 or 335 nM concentration. Additionally, a reaction without enzyme was performed and used to determine the background signal specifying the minimal usable enzyme concentration (signal to background ratio ≥10). Reactions were stopped by adding 3 µL of 5× SDS loading buffer and boiling at 95 °C for 5 min. Proteins were separated by SDS-PAGE and stained with Coomassie Brilliant Blue R250 (Waldeck GmbH & Co. KG, Muenster, Germany). Radioactively labelled proteins were visualized by autoradiography. For quantification, phosphorylated proteins were excised from dried gels and phosphate incorporation was measured via Cherenkov counting.
(§2) Raw data was used to calculate enzyme velocity (V) (phosphate transfer per min). V was plotted over ATP concentration and fitted to the Michaelis-Menten model using GraphPad Prism 7 (GraphPad Software, La Jolla, CA, USA). Km was calculated as the concentration of substrate needed to get half-maximal velocity. In order to determine IC50 values, raw data was transformed from initially measured cpm values to pmol of transferred phosphate. Subsequently data was transformed logarithmically (X = log(X)), normalized to DMSO (100%) and zero (0%) and finally fit to sigmoidal dose-response curves (variable slope) with nonlinear regression using GraphPad Prism 7.

[4] = biological target: 6×His-CK1δ (Homo sapiens, UniProt P48730); test: radiometric in vitro kinase reaction, 6×His-CK1δ, phosphate incorporation into α-casein
Method: as §1, §2

[5] = test system: CK1δ; design: method as in PMID 31817920; conditions: ATP 10 µM, read-out: IC50 in Literature; cited from earlier work
[6] = test system: CK1δ(1–294); conditions: Working Group A, ATP 20 µM; cited from earlier work
[7] = biological target: T1, 6×His-CK1ε (Homo sapiens, UniProt P49674); test: radiometric in vitro kinase reaction, 6×His-CK1ε, phosphate incorporation into α-casein; format: biochemical
T1 construct: made in house
Method: as §1
Raw data was used to calculate enzyme velocity (V) (phosphate transfer per min). V was plotted over ATP concentration and fitted to the Michaelis-Menten model using GraphPad Prism 7 (GraphPad Software, La Jolla, CA, USA). Km was calculated as the concentration of substrate needed to get half-maximal velocity. In order to determine IC50 values, raw data was transformed from initially measured cpm values to pmol of transferred phosphate. […]

[8] = test system: untagged CK1δ; design: method as in PMID 19458106; conditions: CK1-specific peptide substrate, ATP 10 µM, luminescence-based, read-out: IC50 in Literature; cited from earlier work
[9] = test system: 6×His-CK1ε; design: method as in PMID 19458106; conditions: Working Group B, ATP 10 µM; cited from earlier work
[10] = test system: CK1εΔ319; design: method as in PMID 17502429; conditions: Working Group A, CK1εΔ319, ATP 5 µM; cited from earlier work

Sequence of GST-CK1δ (P48730 whole entry): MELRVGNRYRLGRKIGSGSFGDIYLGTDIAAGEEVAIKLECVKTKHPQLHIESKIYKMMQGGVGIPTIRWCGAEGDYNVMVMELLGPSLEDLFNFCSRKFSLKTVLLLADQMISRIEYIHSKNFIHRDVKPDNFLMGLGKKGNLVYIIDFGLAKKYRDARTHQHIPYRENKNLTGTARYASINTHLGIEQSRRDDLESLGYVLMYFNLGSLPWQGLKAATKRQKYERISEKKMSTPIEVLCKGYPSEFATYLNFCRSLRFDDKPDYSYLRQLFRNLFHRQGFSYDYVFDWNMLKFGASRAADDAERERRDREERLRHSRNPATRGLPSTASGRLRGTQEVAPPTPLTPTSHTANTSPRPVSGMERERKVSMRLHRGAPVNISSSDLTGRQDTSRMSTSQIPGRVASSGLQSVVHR
Sequence of 6×His-CK1δ (P48730 whole entry): as above
T1 sequence (P49674 whole entry): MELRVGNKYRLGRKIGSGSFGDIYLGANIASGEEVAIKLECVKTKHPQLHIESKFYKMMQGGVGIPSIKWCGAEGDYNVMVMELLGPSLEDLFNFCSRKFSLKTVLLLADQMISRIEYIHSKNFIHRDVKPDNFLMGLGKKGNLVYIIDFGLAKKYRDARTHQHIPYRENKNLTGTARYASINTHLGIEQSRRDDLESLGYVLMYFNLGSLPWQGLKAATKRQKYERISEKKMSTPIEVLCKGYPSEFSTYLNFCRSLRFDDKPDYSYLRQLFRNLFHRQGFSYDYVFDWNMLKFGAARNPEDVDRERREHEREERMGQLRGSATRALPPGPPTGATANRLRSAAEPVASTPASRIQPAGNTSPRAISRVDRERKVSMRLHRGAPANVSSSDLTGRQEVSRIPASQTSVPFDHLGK

With `COc1cc(OC)c(C=C2C(O)=Nc3ccccc32)c(OC)c1` [IC261] as the compound, how does the IC50 [1] read?
Its IC50 is 1000 nM.

And the IC50 [2]?
Its IC50 is 2500 nM.

Which results are given for `Nc1ncnc2c1ncn2[C@@H]1O[C@H](COP(=O)(O)OP(=O)(O)OP(=O)(O)O)[C@@H](O)[C@H]1O` [ATP]?
Km ([3]; read-out: Km (ATP), GST-CK1δ 7 nM, 10 min, ATP 0.5 to 100 µM, Michaelis-Menten): 6 µM; Km ([4]; read-out: Km (ATP), 6×His-CK1δ 70 nM, 10 min, ATP 0.5 to 100 µM, Michaelis-Menten): 14 µM

Which IC50 ([3]; GST-CK1δ 7 nM, 10 min, ATP equal to Km (ATP) 6 µM, α-casein 10 µM, 30 °C) does the source give for `O=C(Nc1nc2ccc(C(F)(F)F)cc2s1)Sc1nccc(=O)n1Cc1ccc(OC(F)(F)F)cc1` [Liu-20] here?
Its IC50 is 396 nM.

And the Ki ([3]; read-out: Kic, GST-CK1δ, Kic = IC50/2 (Cheng-Prusoff, ATP = Km))?
Its Ki is 198 nM.

And the IC50 [5]?
Its IC50 is 86 nM.

What about the IC50 ([4]; 6×His-CK1δ 70 nM, 10 min, ATP equal to Km (ATP) 14 µM, α-casein 10 µM, 30 °C) of the same compound?
Its IC50 is 404 nM.

And the Ki ([4]; read-out: Kic, 6×His-CK1δ, Kic = IC50/2 (Cheng-Prusoff, ATP = Km))?
The Ki was 202 nM.

Which IC50 [2] does the source give for `NC(=O)c1ccc(-c2nc(-c3ccc4c(c3)OCCO4)c(-c3ccccn3)[nH]2)cc1` [D4476] here?
The IC50 was 200 nM.

And the IC50 [6]?
The IC50 was 300 nM.

For `Nc1ncnc2c1c(COc1cccc(Cl)c1)nn2C1CCOCC1` [PF-4800567], which IC50 [7] is on record?
Its IC50 is 72.3 nM.

What about the Ki ([7]; 6×His-CK1ε, Kic = IC50/2 (Cheng-Prusoff, ATP = Km)) of the same compound?
The Ki was 36.2 nM.

For `Nc1nccc(-c2c(-c3ccc(F)cc3)ncn2C2CCCCC2)n1` [PF-670462], which IC50 [8] is on record?
Its IC50 is 13 nM.

And the IC50 [9]?
The IC50 was 80 nM.

And the IC50 [10]?
The IC50 was 8 nM.
